The results in this text go back to article PMC8450076, “Structural and mechanistic insights into the Artemis endonuclease and strategies for its inhibition” (Nucleic Acids Research, 2021).

Assay [1] deals with T1, Artemis (SNM1C/DCLRE1C) (Homo sapiens, UniProt Q96SD1). The experiment in a line: biochemical.
Target sequence in this assay (Q96SD1 whole entry, the tested form may be a part): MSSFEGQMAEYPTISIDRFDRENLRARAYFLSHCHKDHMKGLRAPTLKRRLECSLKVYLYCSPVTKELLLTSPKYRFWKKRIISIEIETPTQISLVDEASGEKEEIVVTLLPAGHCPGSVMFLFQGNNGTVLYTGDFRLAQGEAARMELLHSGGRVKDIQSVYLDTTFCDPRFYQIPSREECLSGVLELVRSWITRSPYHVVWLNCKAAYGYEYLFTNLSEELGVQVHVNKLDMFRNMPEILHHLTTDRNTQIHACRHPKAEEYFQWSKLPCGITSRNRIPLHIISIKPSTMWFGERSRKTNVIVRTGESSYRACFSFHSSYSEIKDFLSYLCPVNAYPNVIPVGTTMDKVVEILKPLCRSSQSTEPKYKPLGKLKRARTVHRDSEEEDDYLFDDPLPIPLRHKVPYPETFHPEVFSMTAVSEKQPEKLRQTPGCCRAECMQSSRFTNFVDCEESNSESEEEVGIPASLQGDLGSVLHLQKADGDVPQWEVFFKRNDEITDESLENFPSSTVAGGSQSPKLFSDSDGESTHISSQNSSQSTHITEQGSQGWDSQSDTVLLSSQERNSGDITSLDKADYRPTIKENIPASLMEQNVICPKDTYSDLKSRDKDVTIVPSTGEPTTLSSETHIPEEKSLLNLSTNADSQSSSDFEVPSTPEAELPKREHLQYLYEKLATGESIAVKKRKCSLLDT
The target of assay [2] is T1, Artemis (SNM1C/DCLRE1C). The experiment in a line: X-ray crystal structure ([…] Å) plus real-time fluorescence-based nuclease assay (IC50). Format: biochemical. Also on record: truncated Artemis catalytic domain, MBL-β-CASP (aa 1-361). The source says:
We solved a structure of ceftriaxone bound to Artemis
Target sequence in this assay (Q96SD1 1-361): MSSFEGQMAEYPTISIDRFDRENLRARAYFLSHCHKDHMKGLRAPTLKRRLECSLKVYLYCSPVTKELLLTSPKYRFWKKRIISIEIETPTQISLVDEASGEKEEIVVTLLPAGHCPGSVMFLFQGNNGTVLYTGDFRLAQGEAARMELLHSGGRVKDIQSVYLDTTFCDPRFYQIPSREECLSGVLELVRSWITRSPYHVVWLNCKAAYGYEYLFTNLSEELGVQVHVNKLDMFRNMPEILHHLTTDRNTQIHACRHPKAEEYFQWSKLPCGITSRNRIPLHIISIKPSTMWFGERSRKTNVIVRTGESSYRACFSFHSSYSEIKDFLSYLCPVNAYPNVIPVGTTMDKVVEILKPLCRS

As usually defined, the IC50 is the concentration that inhibits the measured activity by half. In turn, `O=c1c2ccccc2[se]n1-c1ccccc1` [ebselen] gave an IC50 in assay [1] of about 8.5 µM. On to `CCN(CC)C(=S)SSC(=S)N(CC)CC` [disulfiram], for which the IC50 in assay [1] (read-out: IC50) is about 10.8 µM. For the compound `CO/N=C(\C(=O)N[C@@H]1C(=O)N2C(C(=O)O)=C(CSc3nc(=O)c(=O)[nH]n3C)CS[C@H]12)c1csc(N)n1` [ceftriaxone], the concentration for half-maximal inhibition (IC50) in assay [2] was determined as 65 µM. As to `CC[P](CC)(CC)=[Au][S][C@@H]1O[C@H](COC(C)=O)[C@@H](OC(C)=O)[C@H](OC(C)=O)[C@H]1OC(C)=O` [auranofin], the IC50 in assay [1] was 46 µM.
